Experimental data: patent US20070231374A1, “Composition Comprising Ether Lipid” (priority 2003, published 2007)

Tests used:
[1] = Phase diagram of GEO/water mixtures (polarising microscope, small angle x-ray diffraction); assay type: physicochemical; conditions: mixtures with water, FIG. 1
Experimental: Mixtures of glyceryl-1-monooleate ether (GEO) with water were prepared, shaken and allowed to equilibrate at a known temperature. The phase(s) of the resulting mixture were examined under the polarising microscope and by small angle x-ray diffraction.
At higher water content, both the L2 and the HII phases were stable in the presence of excess water.

[2] = stated as known; cited from earlier work

Row | water concentration at which reversed hexagonal (HII) phase forms [1] [%] | Structure (SMILES) | stable phase in excess water [2]
1 | > 15 | CCCCCCCC/C=C\CCCCCCCCOCC(O)CO (stereo not drawn) [GEO, Glyceryl-1-monooleate ether] | reversed hexagonal
2 | – | CCCCCCCC/C=C\CCCCCCCC(=O)OCC(O)CO (stereo not drawn) [GMO, glyceryl monooleate] | reversed cubic
